Structures are written as SMILES.

This series can be described thus: Solubilities of Monomers 1 and 2 in toluene, MeOH and water. In kind it is physicochemical.

Take `CCCCCCCCC1(CCCCCCCC)c2cc(B3OCCO3)ccc2-c2ccc(B3OCCO3)cc21` [Monomer 1]: the “Solubility in MeOH” value is “Soluble” (Conc 0.1 mg/ml), “Soluble” (Conc 1 mg/ml), “Soluble” (Conc 50 mg/ml) and “Not Soluble” (Conc 75 mg/ml). Also, the “Solubility in Toluene” value (Conc 0.1 mg/ml) is “Soluble”; the “Solubility in Toluene” value (Conc 1 mg/ml) is “Soluble”; the “Solubility in Toluene” value (Conc 75 mg/ml) was “soluble”; the “Solubility in Toluene” value (Conc 1 g/ml) is “Soluble”; the “Solubility in Toluene” value (Conc 2 g/ml) is reported as “Soluble”. Also, where the note is “Conc 1 mg/ml”, the “Solubility in Water” value is on record as “Insoluble”.

Take `C[N+](C)(C)CCC1(CC[N+](C)(C)C)c2cc(Br)ccc2-c2ccc(Br)cc21` [Monomer 2]: the “Solubility in Toluene” value (Conc 0.1 mg/ml) is “Insoluble”. For the same molecule, for the setting “Conc 1 mg/ml”, the “Solubility in Toluene” value is reported as “Insoluble” and the “Solubility in Water” value is recorded as “Soluble”. In addition, where the note is “Conc 50 mg/ml”, the “Solubility in MeOH” value was “Soluble” and the “Solubility in Water” value was “Insoluble”.

The values are drawn from patent publication US20240076440A1, “PROCESS OF FORMING A CONJUGATED POLYMER” (Sumitomo Chemical Co., ltd., priority 2019, published 2024).
